Test results from the SangsterLogP compilation.
One block for each compound: values may come before it.

logD (pH 6.5): 3.64
Compound: NC(=O)C(C(=O)/C=C/c1ccc(Cl)cc1)=C1SCS1

logD (pH 5.0): 3.93
Compound: CCOC(=O)C1=C(C)NC(=O)C[C@@H]1c1cc(OC)c(OC)cc1Br

logD (pH 10.5): 3.4
Compound: CCN(C(=O)[C@@H](C)OC(=O)c1cc(OC)c(OC)c(OC)c1)c1ccccc1

logD (pH 5.0): 2.86
Compound: C=CCN1C(=S)N(c2ccc(CC)cc2)[C@H]2CS(=O)(=O)C[C@@H]21

logD (pH 7.0): 4.93
Compound: CC(=O)Nc1ccc([C@H]2C(C#N)=C(N)Oc3c2c(C)nn3-c2cccc(Cl)c2)cc1

logD (pH 9.0): 4.26
Compound: CC(=O)Nc1ccc([C@@H]2C(C#N)=C(N)Oc3[nH]nc(-c4cc(C)sc4C)c32)cc1

logD (pH 5.0): 3.72
Compound: COC(=O)c1cccc(NC(=O)c2ccc(C)cc2)c1

logD (pH 5.0): 4.98
Compound: CCOc1ccc(C[C@H]2c3cc(OCC)c(OCC)cc3CCN2C(=O)c2scnc2C)cc1OCC

logD (pH 5.0): 4.44
Compound: COC(=O)c1ccc([C@@H]2C3=C(C[C@H](c4ccco4)CC3=O)Nc3ccccc3N2C(=O)C2CC2)cc1

logD (pH 10.5): 4.42
Compound: COc1cc([C@@H]2C(C#N)=C(N)Oc3[nH]nc(C)c32)ccc1OCc1cccc(F)c1

logD (pH 5.0): 5.41
Compound: CCCOc1ccc(NC(=O)C[C@H]2C(=O)N(c3ccc(Cl)cc3)C(=S)N2C2CC2)cc1

logD (pH 2.0): 4.09
Compound: CC(C)N(Cc1nnc(-c2ccc(Cl)cc2)o1)C(=O)[C@@H]1COc2ccccc2O1

logD (pH 7.3): 3.62
Compound: COc1cccc([C@@H]2C3=C(CCCC3=O)N=C(C)C2C(=O)OC[C@@H]2CCCO2)c1 (stereo partly drawn)

logD (pH 7.3): 5.32
Compound: CC(C)[C@@H](C(=O)Nc1nc(-c2ccc(S(=O)(=O)N3CCOCC3)cc2)cs1)N1C(=O)c2ccccc2C1=O

logD (pH 7.3): 4.36
Compound: CCCn1c2ccccc2c2nnc(SCC(=O)N[C@H](C)c3ccccc3)nc21

logD (pH 10.0): 4.75
Compound: CCc1ccc([C@@H]2C(C(=O)OC(C)C)=C(C)N=C3SCCC(=O)N32)cc1

logD (pH 7.3): 3.95
Compound: CCOc1ccc([C@@H]2Oc3nc(SC)nnc3-c3ccccc3N2C(=O)CC)cc1OC

logD (pH 5.0): 3.97
Compound: COC(=O)[C@H](CCSC)NC(=O)c1cc2c(n(-c3ccccc3)c1=O)CC(C)(C)CC2=O

logD (pH 2.0): 1.98
Compound: COCON1C(=O)CN(C(C)=O)[C@H]1c1ccc(Cl)cc1Cl

logD (pH 10.0): 5.16
Compound: CCOC(=O)c1c(CC(C)C)csc1/N=C/c1c(C)nn(-c2ccccc2)c1O

logD (pH 7.3): 4.25
Compound: COc1ccc([C@H]2C[C@H](C(F)(F)F)n3ncc(C(=O)N(C)Cc4cnn(C)c4C)c3N2)cc1OC

logD (pH 10.0): 3.89
Compound: CCOCCOC(=O)C1=C(C)NC2=C(C(=O)CCC2)[C@@H]1c1ccc(C)cc1

Continued, compound first:

Compound: Cc1cc(C)c([C@H]2[C@@H]3CCCC=C3C(C#N)=C(N)C2(C#N)C#N)c(C)c1
logD (pH 5.0): 5.48

Compound: O=C(CCCNC1=NS(=O)(=O)c2ccccc21)OCc1cc([N+](=O)[O-])cc2c1OCOC2
logD (pH 6.5): 3.52

Compound: CC(C)C(=O)N[C@H](Oc1ccc(C=O)cc1)C(Cl)(Cl)Cl
logD (pH 5.0): 3.68

Compound: CCOc1ccc(C2=NN=C3OC(N)=C(C#N)[C@@H](c4ccco4)[C@@H]32)c(OCC)c1
logD (pH 10.5): 4.48

Compound: COc1cccc(NC(=O)[C@H](OC(=O)C2=COCCO2)c2ccccc2)c1
logD (pH 5.0): 3.81

Compound: N#CC1=C(N)C(C#N)(C#N)[C@@H](c2ccccc2Cl)[C@@H]2CSCC=C12
logD (pH 5.0): 4.5

Compound: Cc1nn(C)cc1-c1cc(C(F)(F)F)n2nc(C(=O)N3C[C@@H](C)O[C@@H](C)C3)cc2n1
logD (pH 10.0): 4.11

Compound: COCCCNC(=S)N1[C@H](C)CCC[C@H]1C
logD (pH 5.0): 2.8

Compound: COC(=O)N[C@H](O)C(=O)c1ccccc1
logD (pH 5.0): 1.41

Compound: Cc1ccc([N+](=O)[O-])cc1N1C(=O)[C@@H]2[C@@H](C1=O)[C@@H](C(=O)C(C)(C)C)N1N=CC=C[C@H]21
logD (pH 5.0): 3.85

Compound: CCCC[C@@]1(c2ccccc2)NC(=S)N(c2ccc(C)cc2)N1
logD (pH 10.0): 5.1

Compound: O=[N+]([O-])c1ccc(-c2nc3nc4ccccc4nc3n2C[C@@H]2CCCO2)cc1
logD (pH 10.5): 3.75

Compound: O=C1/C(=C/c2ccsc2)SC(=S)N1c1cccc(C(F)(F)F)c1
logD (pH 5.0): 5.8

Compound: COC[C@H](C)NC(=O)CCl
logD (pH 6.5): 0.61

Compound: COc1ccc([C@@H]2[C@@H]3CCCC=C3C(C#N)=C(N)C2(C#N)C#N)cc1COCC(F)(F)F
logD (pH 5.0): 5.5

Compound: N#CC1=C(N)OC2=C(C(=O)C[C@H](c3ccccc3)C2)[C@H]1c1ccccc1F
logD (pH 10.0): 3.07

Compound: Cc1ccc(NCc2ccc3n2C/C(=C2/CCn4c(CNc5ccc(C)cc5)ccc42)C3=O)cc1
logD (pH 10.5): 6.51

Compound: C[C@@]12CC[C@H]3C[C@]1(C#N)N(C(=O)c1cccc([N+](=O)[O-])c1)C[C@]32C
logD (pH 5.0): 3.25

Compound: CCCC(=O)NC[C@@H](C)NC(=O)CCC
logD (pH 5.0): 1.43

Compound: C[C@@]1(c2ccc(Cl)cc2)NC(=S)N2[C@@H]1NC(=S)N2c1ccc(Cl)cc1
logD (pH 5.0): 4.94

Compound: Nc1nc(O/N=C/c2ccc([N+](=O)[O-])cc2)nc(N2CCOCC2)n1
logD (pH 10.5): 3.18

Compound: CC(=O)Oc1ccc(C(=O)Nc2cccc(C(=O)c3cccc(NC(=O)c4ccc(OC(C)=O)cc4)c3)c2)cc1
logD (pH 5.0): 5.34

Compound: C[C@H]1CN(C(=O)c2cc(-c3ccc4c(c3)OCO4)nc3ccccc23)C[C@H](C)O1
logD (pH 10.0): 4.19

Compound: N#CC1=C(N)Oc2c(c(=O)oc3ccccc23)[C@H]1c1cccs1
logD (pH 10.5): 2.34

Compound: O=C1[C@@H]2[C@@H]3[C@H]4C[C@H]5[C@@H]3[C@@H]2C2(OCCO2)[C@H]5[C@@H]14
logD (pH 2.0): 0.51

Compound: O=C(CN1C(=O)c2ccccc2S1(=O)=O)Nc1ccc(S(=O)(=O)N2CCCCCC2)cc1
logD (pH 5.0): 4.73
